Series [1] deals with ABC1 expression. The experiment in a line: ABC1 up-regulation in human THP-1 cells by PPAR mediators (Northern blotting; also quantitative PCR Taqman). It counts as cell-based. The following applies: for up-regulation of ABC1 expression: treatment at 1 and 10 μM, Northern blotting (FIG. 1, FIG. 2). Here is the method:
THP-1 cells, a human monocytic cell line, are maintained in RPMI with 10% FCS (fetal calf serum)/[…] gentamycin/25 mM Hepes. Cells are plated at approximately 1×10^5 per cm^2 in RPMI/10% charcoal-stripped FCS (Hyclone) the presence or absence of 100 ng/ml PMA (phorbol myritic acid)(Gibco BRL) and the indicated concentrations of test compound or DMSO (dimethyl sulfoxide). Test compounds are refreshed daily. Alternatively, cells are incubated with […] AcLDL (acetylated LDL) as positive control. After 48 or 72 hours, cellular RNA is isolated with Trizol® (Gibco) according to the manufacturer's instructions. Total RNA ([…]) is subjected to Northern blotting. The fragment used as a probe is a 431bp PCR product of ABC1 corresponding to nucleotides (nt's) 3306-3737 of Genbank Ace # AJ012376 (T. Langmann et al,1999, BBRC 257, 29-33). The sequences of the primers usd to generate the fragment are: […] nt. pos 3306-3326 (forward); […] nt. pos 3737-3711 (reverse). Blots are hybridized with this probe labelled with [a32P]dCTP (Amersham) with ExpressHyb® (Clontech, Palo Alto Calif.) according to manufacturer's protocol, washed, and exposed to X-ray film. Resulting signals are quantitated by densitometry.
A representative example of a Northern blotting analysis is represented in FIG. 1 and corresponding graph bar in FIG. 2.
(In general: In qPCR the cycle at which signal appears reflects the starting amount.)

The test system of series [2] is ABC1 expression. The experiment in a line: ABC1 up-regulation in human primary hepatocytes (RNA analysis). It counts as cell-based. The following applies: human primary hepatocytes (FIG. 4). Here is the method:
Assay Example 2: ABC 1 Up-regulation in Human Hepatocytes and Human Macrophages Derived Monocytes by Fenofibric Acid, and for Wy 14,643 and Related Cholesterol Efflux in Macrophages Human liver specimens are collected from healthy multiorgan donors for transplantation who died after severe traumatic brain injury. Hepatocytes are obtained by a two-step collagenase perfusion (REF). Cells are resuspended in minimal essential medium with Earl's salts with 10% FCS, 2 mM glutamine, […] gentamycin, seeded at density of 1.5×10^5 cells/cm^2 in plastic culture dishes coated with 20 mg rat tail collagene type I (Sigma).Medium is renewed after 4 hours of adhesion. After 20 hours the medium is discarded and differents compounds added at the indicated concentrations in serum-free medium. Total cellular RNA is extracted from differentated macrophages treated for 6 hours with different compounds using the RNA plus kit (Bioprobe System, Montreuil, france). RNA from human hepatocytes are prepared as described by Chomczynski and Sacchi. For RT-PCR analysis, total RNA is reverse transcribed using random hexamer primers and Superscript reverse transcriptase (Life Technologies) as sebsequently amplified by PCR. The resulting products are separated on a 1% agrose gel and stained with ethidium bromide.

As a reminder, the melting point is the temperature, or range, at which the solid turns liquid. As to `N#Cc1cccc(OCc2cccc(OCc3ccc4ccccc4n3)c2)c1` [Example 7, 3-[3-(2-quinolinylmethyloxy)benzyloxy]benzonitrile], the melting point was in the range of 86 to 87 °C.

Turning to `c1cc(COc2cccc(-c3nnn[nH]3)c2)cc(OCc2ccc3ccccc3n2)c1` [Example 10, 5-[3-(3-(2-quinolinylmethyloxy)benzyloxy)-phenyl]tetrazole], the melting point was in the range of 169 to 172 °C.

`c1ccc2nc(COc3ccc(COc4ccc(-c5nnn[nH]5)cc4)cc3)ccc2c1` [Example 11, 5-[4-(4-(2-quinolinylmethyloxy)benzyloxy)phenyl]tetrazole] registered a melting point of 210 to 213 °C.

Regarding `c1ccc2nc(COc3ccc(COc4ccc(Cc5nnn[nH]5)cc4)cc3)ccc2c1` [Example 12, 5-[4(4-(2-quinolinylmethyloxy)benzyloxy)benzyl]tetrazole], the melting point was 179 to 181 °C.

Consider `COC(=O)c1ccc(OCc2cccc(OCc3ccc4ccccc4n3)c2)c(OC)c1` [Example 14, methyl 3-methoxy-4-(3-(2-quinolinylmethyloxy)benzyloxy)-benzoate], for which the melting point lay in the range of 100 to 101 °C.

For `COc1cc(C(=O)O)ccc1OCc1cccc(OCc2ccc3ccccc3n2)c1` [Example 15, 3-methoxy-4-(3-(2-quinolinylmethyloxy)benzyloxy)benzoic acid], the melting point was in the range of 188 to 190 °C.

`COC(=O)c1cccc(COc2cccc(OCc3ccc4ccccc4n3)c2)c1` [Example 19, methyl 3-(3-(2-quinolinylmethyloxy)phenoxymethyl)benzoate]: the melting point is 93 to 94 °C.

As for `O=C(O)c1cccc(COc2cccc(OCc3ccc4ccccc4n3)c2)c1` [Example 20, 3-(3-(2-quinolinylmethyloxy)phenoxymethyl)-benzoic acid], the melting point was in the range of 149 to 151 °C.

In the case of `c1cc(OCc2ccc3ccccc3n2)cc(OCc2ccccc2Cc2nnn[nH]2)c1` [Example 28, 5-(2-(3-(2-quinolinylmethyloxy)phenoxymethyl)benzyl)tetrazole], the melting point lay within 145.5 to 147 °C.

`c1cc(OCc2ccc3ccccc3n2)cc(OCc2ccccc2-c2nnn[nH]2)c1` [Example 28, 5-(2-(3-(2-quinolinylmethyloxy)phenoxymethyl)phenyl)tetrazole] showed a melting point of 166 to 170 °C.

Consider `c1cc(OCc2cccc(-c3nnn[nH]3)c2)cc(OCc2ccc3ccccc3n2)c1` [Example 28, 5-(3-(3-(2-quinolinylmethyloxy)phenoxymethyl)phenyl)tetrazole], for which the melting point is 115 °C (dec.).

Compound `c1cc(OCc2ccc(Cc3nnn[nH]3)cc2)cc(OCc2ccc3ccccc3n2)c1` [Example 28, 5-(4-(3-(2-quinolinylmethyloxy)phenoxymethyl)benzyl)tetrazole] showed a melting point of 149 to 151 °C.

The compound `c1cc(COc2ccc(OCc3ccc4ccccc4n3)cc2)cc(OCc2nnn[nH]2)c1` [Example 32, 5-(3-(4-(2-quinolinylmethyloxy)phenoxymethyl)phenoxymethyl)tetrazole] showed a melting point of 131 to 132 °C.

As to `Cc1cccc(COc2cccc(OCc3ccc4ccccc4n3)c2)c1C(=O)O` [RPR52], in the series on ABC1 expression [1], the “up-regulation of ABC1 expression” value is reported as “up-regulation of ABC1 expression”.

In the case of `Cc1cc(OCc2ccccc2)cc(OCc2cccc(OCc3ccc4ccccc4n3)c2)c1C(=O)O` [RPR64], the “up-regulation of ABC1 expression” value in the series with ABC1 expression [1] is given as “up-regulation of ABC1 expression”.

Turning to `Cc1cccc(Nc2cc(Cl)nc(SCC(=O)O)n2)c1C` [Wy 14,643, pyrinixic acid], in the series with ABC1 expression [2], the ABC1 up-regulation result is given as “ABC1 up-regulation”.

In the case of `c1ccc(Cc2nnn[nH]2)c(COc2ccc(OCc3ccc4ccccc4n3)cc2)c1` [compound of formula VI, 5-[2-(4-(2-quinolinylmethoxy)phenoxymethyl)benzyl]tetrazole], in the series with ABC1 expression [1] (relative to DMSO), the “increase in up-regulation of ABC 1 expression relative to treatment with DMSO” value is given as “fourteen fold increase”.

For the origin of these results see patent US20030220373A1, “Therapeutic uses of PPAR mediators” (priority 2000, published 2003).
